These are literature values, as cited in US8415326B2, “Pharmaceutical composition comprising chito-oligomers” (Genis Ehf., priority 2001, dated 2013).

One data set relates to activated macrophages. The following applies: reference [23].
The test system of data set [1] is normal human articular chondrocytes. Particulars: reference [24].
The test system of data set [2] is mesothelial cells and fibroblasts. The following applies: reference [11].

For `CC(=O)N[C@H]1[C@H](O[C@H]2[C@H](O)[C@@H](NC(C)=O)[C@H](O[C@H]3[C@H](O)[C@@H](NC(C)=O)C(O)O[C@@H]3CO)O[C@@H]2CO)O[C@H](CO)[C@@H](O[C@@H]2O[C@H](CO)[C@@H](O[C@@H]3O[C@H](CO)[C@@H](O[C@@H]4O[C@H](CO)[C@@H](O)[C@H](O)[C@H]4NC(C)=O)[C@H](O)[C@H]3NC(C)=O)[C@H](O)[C@H]2NC(C)=O)[C@@H]1O` (some centres unmarked) [Hexa-N-acetylchitohexaose], in the data set with activated macrophages, the “effect on nitric oxide (NO) production by activated macrophages” value is on record as “inhibited NO production but with less potency”.
In the case of `CC(=O)N[C@H]1C(O)O[C@H](CO)[C@@H](O)[C@@H]1O` (some centres unmarked) [N-acetylglucosamine], in data set [1], the “effect on NO production in normal human articular chondrocytes” value is “inhibit NO production”. Besides, the synthesis of hyaluronan entry in data set [2] is given as “increases the synthesis of hyaluronan”.
As for `N[C@H]1C(O)O[C@H](CO)[C@@H](O)[C@@H]1O` (some centres unmarked) [glucosamine], in data set [1], the “effect on NO production in normal human articular chondrocytes” value was “inhibit NO production”.
Regarding `CC(=O)N[C@H]1[C@H](O[C@H]2[C@H](O)[C@@H](NC(C)=O)[C@H](O[C@H]3[C@H](O)[C@@H](NC(C)=O)C(O)O[C@@H]3CO)O[C@@H]2CO)O[C@H](CO)[C@@H](O[C@@H]2O[C@H](CO)[C@@H](O[C@@H]3O[C@H](CO)[C@@H](O)[C@H](O)[C@H]3NC(C)=O)[C@H](O)[C@H]2NC(C)=O)[C@@H]1O` (some centres unmarked) [penta-N-acetylchitopentaose], the “effect on nitric oxide (NO) production by activated macrophages” value with activated macrophages is “inhibited NO production but with less potency”.
